Data as given in ChEMBL document CHEMBL3593202, “Design, Synthesis, and Characterization of 3-(Benzylidene)indolin-2-one Derivatives as Ligands for α-Synuclein Fibrils” (J Med Chem, 2015).
Activity calls are given as the source filed them. The calls are words filed in the database; no cut-off is given here.

Legend:
[1] = target: T1, Amyloid-beta precursor protein (Homo sapiens, UniProt P05067); test: Displacement of Thio-T from synthetic amyloid beta (1 to 42) (unknown origin) after 1.5 hrs by fluorescence assay
T1 sequence (P05067 whole entry): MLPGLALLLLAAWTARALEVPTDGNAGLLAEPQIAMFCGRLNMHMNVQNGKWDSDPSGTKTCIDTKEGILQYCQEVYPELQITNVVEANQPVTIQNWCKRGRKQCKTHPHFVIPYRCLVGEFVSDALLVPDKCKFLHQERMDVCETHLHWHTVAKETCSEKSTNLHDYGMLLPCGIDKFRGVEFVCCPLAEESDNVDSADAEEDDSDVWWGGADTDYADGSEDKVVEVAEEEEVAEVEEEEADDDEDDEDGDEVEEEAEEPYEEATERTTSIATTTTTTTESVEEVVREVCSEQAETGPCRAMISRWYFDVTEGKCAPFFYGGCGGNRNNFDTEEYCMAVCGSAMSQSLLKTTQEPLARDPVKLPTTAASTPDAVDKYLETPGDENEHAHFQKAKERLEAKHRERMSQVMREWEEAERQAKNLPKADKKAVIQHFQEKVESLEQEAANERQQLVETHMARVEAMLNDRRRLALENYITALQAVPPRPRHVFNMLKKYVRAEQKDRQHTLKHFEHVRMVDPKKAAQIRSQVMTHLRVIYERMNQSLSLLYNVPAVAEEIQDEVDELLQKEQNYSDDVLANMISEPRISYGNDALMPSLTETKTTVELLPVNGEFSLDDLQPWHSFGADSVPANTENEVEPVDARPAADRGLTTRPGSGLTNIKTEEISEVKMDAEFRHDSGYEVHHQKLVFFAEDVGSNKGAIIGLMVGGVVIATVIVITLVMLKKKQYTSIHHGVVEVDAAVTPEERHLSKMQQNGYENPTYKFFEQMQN

[2] = target: T2, Microtubule-associated protein tau (Homo sapiens, UniProt P10636); test: Displacement of Thio-T from human recombinant tau (243 to 375) expressed in Escherichia coli BL21(DE3)RIL after 1.5 hrs by fluorescence assay
T2 sequence (P10636 whole entry): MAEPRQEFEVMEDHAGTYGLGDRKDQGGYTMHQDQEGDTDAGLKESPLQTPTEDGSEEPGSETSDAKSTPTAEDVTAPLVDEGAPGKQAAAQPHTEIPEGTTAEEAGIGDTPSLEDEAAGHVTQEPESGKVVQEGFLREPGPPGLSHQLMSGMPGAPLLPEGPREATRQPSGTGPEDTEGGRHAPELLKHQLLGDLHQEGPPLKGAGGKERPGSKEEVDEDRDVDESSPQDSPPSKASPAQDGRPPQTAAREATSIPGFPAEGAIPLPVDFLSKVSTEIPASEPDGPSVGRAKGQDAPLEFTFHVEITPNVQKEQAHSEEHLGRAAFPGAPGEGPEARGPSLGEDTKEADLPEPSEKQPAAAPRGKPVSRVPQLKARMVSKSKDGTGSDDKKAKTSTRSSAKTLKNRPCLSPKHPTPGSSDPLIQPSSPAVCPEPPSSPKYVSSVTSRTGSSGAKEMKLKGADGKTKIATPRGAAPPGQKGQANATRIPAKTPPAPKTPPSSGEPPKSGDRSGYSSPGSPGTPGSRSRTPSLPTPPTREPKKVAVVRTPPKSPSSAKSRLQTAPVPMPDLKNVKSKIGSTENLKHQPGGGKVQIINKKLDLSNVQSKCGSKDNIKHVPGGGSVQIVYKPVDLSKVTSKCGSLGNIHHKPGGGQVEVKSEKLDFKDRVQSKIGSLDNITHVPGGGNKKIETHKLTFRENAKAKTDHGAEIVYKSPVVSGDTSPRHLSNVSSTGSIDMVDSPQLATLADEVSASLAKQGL

Alpha-synuclein [3] = target: T3, Alpha-synuclein (Homo sapiens, UniProt P37840); test: Displacement of Thio-T from recombinant alpha-synuclein (unknown origin) expressed in Escherichia coli after 1.5 hrs by fluorescence assay
[4] = Lipophilicity, log P of the compound; assay type: physicochemical; settings: octanol/water
[5] = target: T2, Microtubule-associated protein tau; test: Binding affinity human recombinant tau (243 to 375) expressed in Escherichia coli BL21(DE3)RIL after 1 hr by scintillation counting
Alpha-synuclein [6] = target: T3, Alpha-synuclein; test: Binding affinity to recombinant alpha-synuclein (unknown origin) expressed in Escherichia coli after 1 hr by scintillation counting
[7] = target: T1, Amyloid-beta precursor protein; test: Binding affinity amyloid beta (1 to 42) (unknown origin) expressed in Escherichia coli after 1 hr by scintillation counting
[8] = target: T1, Amyloid-beta precursor protein; test: Binding affinity to amyloid beta in alzheimer's diseased human brain tissue at 5 uM after 20 mins by fluorescence microscopic analysis

Row | Structure (SMILES) | Ki [1] [nM] | Ki [2] [nM] | Ki (Alpha-synuclein [3]) [nM] | logP [4] | Kd [5] [nM] | Kd (Alpha-synuclein [6]) [nM] | Kd [7] [nM] | Activity [8]
1 | O=C1Nc2ccccc2/C1=C\C=C\c1ccc([N+](=O)[O-])cc1 | 60 | 209 | 211 |  |  |  |  | 
2 | CN(C)c1ccc(/C=C2\C(=O)N(Cc3ccccc3)c3ccccc32)cc1 | 260 | 798 | 144 |  |  |  |  | 
3 | COc1ccc(CN2C(=O)/C(=C\C=C\c3ccc([N+](=O)[O-])cc3)c3ccccc32)cc1OC | 73.6 | 152 | 3.5 |  |  |  |  | 
4 | O=C1Nc2ccccc2/C1=C/c1ccc([N+](=O)[O-])cc1 | 325 | 362 | 347 |  |  |  |  | 
5 | CN(C)c1ccc(/C=C/C=C2\C(=O)N(Cc3ccncc3)c3ccccc32)cc1 |  | 188 | 92 |  |  |  |  | 
6 | O=C1/C(=C\c2ccc([N+](=O)[O-])cc2)c2ccccc2N1Cc1ccccc1 | 460 | 1760 | 483 |  |  |  |  | 
7 | CN(C)c1ccc(/C=C2\C(=O)N(Cc3ccccc3)c3ncccc32)cc1 (mixture of isomers) | 190 | 859 | 350 |  |  |  |  | 
8 | CN(C)c1ccc(/C=C2\C(=O)Nc3ncccc32)cc1 (mixture of isomers) | 40 | 191 | 124 |  |  |  |  | 
9 | O=C1/C(=C\C=C\c2ccc([N+](=O)[O-])cc2)c2ccccc2N1Cc1ccccc1 | 214 | 121 | 25 |  |  |  |  | 
10 | O=C1/C(=C\C=C\c2ccccc2)c2ccccc2N1Cc1ccccc1 (mixture of isomers) | 703 | 682 | 227 |  |  |  |  | 
11 | COc1ccc(CN2C(=O)/C(=C\C=C\c3ccc(N(C)C)cc3)c3ccccc32)cc1 (mixture of isomers) | 130 | 240 | 54.6 |  |  |  |  | 
12 | COc1ccc(CN2C(=O)/C(=C\C=C\c3ccc([N+](=O)[O-])cc3)c3ccccc32)cc1 | 131 | 72.4 | 12.9 |  |  |  |  | 
13 | COc1cccc(CN2C(=O)/C(=C/C=C/c3ccc([N+](=O)[O-])cc3)c3ccccc32)c1 | 265 | 355 | 64.7 |  |  |  |  | 
14 | O=C1/C(=C\C=C\c2ccc([N+](=O)[O-])cc2)c2ccccc2N1Cc1ccc(OCCF)cc1 | 142 | 80.1 | 2.1 | 4.18 |  |  |  | 
15 | O=C1Nc2ccccc2/C1=C/C=C/c1ccccc1 (mixture of isomers) | 267 | 522 | 207 |  |  |  |  | 
16 | CN(C)c1ccc(/C=C/C=C2\C(=O)Nc3ncccc32)cc1 (mixture of isomers) | 15.3 | 35.1 | 11.5 |  |  |  |  | 
17 | CN(C)c1ccc(/C=C2\C(=O)Nc3ccccc32)cc1 (mixture of isomers) | 91.6 | 261 | 84.4 |  |  |  |  | 
18 | CCOC(=O)N1C(=O)/C(=C\C=C\c2ccc(N(C)C)cc2)c2ccccc21 (mixture of isomers) | 84 | 263 | 45.3 |  |  |  |  | 
19 | COc1ccc(/C=C/C=C2\C(=O)N(Cc3ccccc3)c3ccccc32)cc1 (mixture of isomers) | 741 | 718 | 72.5 |  |  |  |  | 
20 | CN(C)c1ccc(/C=C2\C(=O)N(c3ccccc3)c3ccccc32)cc1 (mixture of isomers) | 179 | 790 | 290 |  |  |  |  | 
21 | CCOC(=O)N1C(=O)/C(=C\c2ccc(N(C)C)cc2)c2ccccc21 (mixture of isomers) | 140 | 1120 | 343 |  |  |  |  | 
22 | CN(C)c1ccc(/C=C/C=C2\C(=O)N(Cc3ccc(N)cc3)c3ccccc32)cc1 (mixture of isomers) | 98.9 | 131 | 43.6 |  |  |  |  | 
23 | CN(C)c1ccc(/C=C/C=C2\C(=O)N(Cc3ccccc3)c3ncccc32)cc1 (mixture of isomers) | 85.1 | 257 | 68.3 |  |  |  |  | 

Row | Structure (SMILES) | Ki [1] [nM] | Ki [2] [nM] | Ki (Alpha-synuclein [3]) [nM] | logP [4] | Kd [5] [nM] | Kd (Alpha-synuclein [6]) [nM] | Kd [7] [nM] | Activity [8]
24 | CN(C)c1ccc(/C=C2\C(=O)Nc3ccc(O)cc32)cc1 (mixture of isomers) | 94.8 | 212 | 407 |  |  |  |  | 
25 | O=C1/C(=C/C=C/c2ccc([N+](=O)[O-])cc2)c2ccccc2N1Cc1ccccc1 | 235 | 590 | 193 |  |  |  |  | 
26 | Nc1ccc(/C=C/C=C2\C(=O)Nc3ccccc32)cc1 (mixture of isomers) | 50.8 | 38.3 | 44.8 |  |  |  |  | 
27 | COc1ccc(CN2C(=O)/C(=C\c3ccc(N(C)C)cc3)c3ccccc32)cc1 (mixture of isomers) | 251 | 432 | 114 |  |  |  |  | 
28 | CN(C)c1ccc(/C=C/C=C2\C(=O)N(Cc3ccc([N+](=O)[O-])cc3)c3ccccc32)cc1 (mixture of isomers) | 92.4 | 90 | 4.2 |  |  |  |  | 
29 | CN(C)c1ccc(/C=C/C=C2\C(=O)N(Cc3ccccc3)c3ccccc32)cc1 (mixture of isomers) | 358 | 374 | 40.9 |  |  |  |  | 
30 | COc1ccc(/C=C/C=C2\C(=O)Nc3ccccc32)cc1 (mixture of isomers) | 126 | 169 | 61.1 |  |  |  |  | 
31 | O=C1/C(=C\C=C\c2ccc([N+](=O)[O-])cc2)c2ccccc2N1Cc1ccc(OCC[18F])cc1 |  |  |  |  | 50 | 8.9 | 271 | 
32 | CN(C)c1ccc(/C=C/C=C2\C(=O)Nc3ccccc32)cc1 (mixture of isomers) | 27.6 | 53.7 | 40.7 |  |  |  |  | Active
33 | COc1ccc(CN2C(=O)/C(=C\c3ccc(N(C)C)cc3)c3cccnc32)cc1 (mixture of isomers) | 113 | 853 | 79.5 |  |  |  |  | 
34 | CN(C)c1ccc(/C=C2\C(=O)N(Cc3ccncc3)c3ccccc32)cc1 |  | 364 | 150 |  |  |  |  | 
35 | COc1cccc(CN2C(=O)/C(=C\C=C\c3ccc([N+](=O)[O-])cc3)c3ccccc32)c1 | 110 | 229 | 3.8 |  |  |  |  | 
36 | COc1ccc(CN2C(=O)/C(=C/C=C/c3ccc([N+](=O)[O-])cc3)c3ccccc32)cc1OC | 130 | 630 | 53.3 |  |  |  |  | 
37 | O=C1Nc2ccccc2/C1=C/C=C/c1ccc([N+](=O)[O-])cc1 | 36.2 | 27.1 | 14.6 |  |  |  |  | 
38 | CN(C)c1ccc(/C=C2\C(=O)N(C)c3ccccc32)cc1 (mixture of isomers) | 155 | 618 | 508 |  |  |  |  | 
39 | CN(C)c1ccc(/C=C/C=C2\C(=O)N(C)c3ccccc32)cc1 (mixture of isomers) | 56 | 229 | 63.7 |  |  |  |  | 
40 | O=C1/C(=C/C=C/c2ccc([N+](=O)[O-])cc2)c2ccccc2N1Cc1ccc(OCCF)cc1 | 125 | 456 | 76.1 |  |  |  |  | 
41 | COc1ccc(CN2C(=O)/C(=C\C=C\c3ccc(N(C)C)cc3)c3cccnc32)cc1 (mixture of isomers) | 107 | 204 | 29.8 |  |  |  |  | 
42 | O=C1/C(=C/c2ccc([N+](=O)[O-])cc2)c2ccccc2N1Cc1ccccc1 | 695 | 1410 | 959 |  |  |  |  | 
43 | CN(C)c1ccc(/C=C/C=C2\C(=O)Nc3ccc(O)cc32)cc1 (mixture of isomers) | 37.1 | 48 | 54 |  |  |  |  | 
44 | O=C1Nc2ccccc2/C1=C\c1ccc([N+](=O)[O-])cc1 | 439 | 528 | 622 |  |  |  |  | 
45 | COc1ccc(CN2C(=O)/C(=C/C=C/c3ccc([N+](=O)[O-])cc3)c3ccccc32)cc1 | 138 | 318 | 81.9 |  |  |  |  | 
46 | CN(C)c1ccc(/C=C/C=C2\C(=O)N(c3ccccc3)c3ccccc32)cc1 (mixture of isomers) | 287 | 465 | 68.1 |  |  |  |  | 
